The record followed here is US10650534B2, “Display control and image processing of a cell image” (Sony Corporation, priority 2011, dated 2020).

For this data set, the system named is cultured cardiomyocytes. The data set is described as follows: Propagation of pulsation in cultured cardiomyocytes after drug administration, shown by two-dimensional color maps of the motion amount absolute value. The data set is classed as cell-based. Particulars: for speed of propagation of pulsation / state (direction, path) of propagation of pulsation: compared with organic solvent (control); for state (direction, path) of propagation of pulsation: color maps over 0 to 240 ms; for stop of propagation of pulsation / region without pulsation (motionless region): within the observation region. From the text: A drug evaluation apparatus 100 illustrated in FIG. 3 is an apparatus that conducts evaluation of a drug administered to cultured cardiomyocytes 110 by observing a motion of the cardiomyocytes 110. […] The imaging unit 101 images the cultured cardiomyocytes 110 during a predetermined period. That is, the imaging unit 101 obtains a moving image of the cultured cardiomyocytes 110 as an object. The imaging unit 101 images the cultured cardiomyocytes 110 before and after the drug administration. Note that the imaging unit 101 may image the cultured cardiomyocytes 110 several times after the drug administration according to a predetermined condition, such as after a predetermined time having passed, for example. The evaluation index data generation unit 103 performs, in each frame image of the supplied object to be evaluated image data 112, motion detection of the object to be observed (cultured cardiomyocytes 110) for each block that is a subregion obtained by dividing all regions of an image of the object to be observed (cultured cardiomyocytes 110) into a plurality of regions. The evaluation index data generation unit 103 expresses the detected motion of each block as a motion vector, and obtains the magnitude of the motion vector (motion amount). Note that this motion amount is an absolute value, and therefore, hereinafter, the motion amount will be also referred to as a motion amount absolute value. The evaluation unit 104 maps the motion amount absolute value supplied as the evaluation index data 113 into a two-dimensional color map, and evaluates the drug by expressing the state of propagation of pulsation and further, by quantitatively evaluating the state thereof. The evaluation unit 104 outputs the two-dimensional color map and a quantitative evaluation result as an evaluation value 114. The two-dimensional color map indicates the size of a parameter at each position on a plane in color. In this case, the plane represents an observation region of the cultured cardiomyocytes 110, and the color represents the motion amount absolute value (size of the value). That is, a position of the motion amount absolute value is represented by a position on the plane, and the size of the value is represented in color. That is, a distribution of the motion amount absolute value within the observation region is indicated by a change of the color on the plane. Examples of such a two-dimensional color map are illustrated in FIGS. 4 to 6. The eight color maps illustrated in FIG. 4 respectively indicate the distribution of the motion amount absolute value within the observation region, and a position on the color map indicates a position within the observation region and higher color density indicates a larger motion amount absolute value. […] Note that the arrows on the color maps are drawn for the purpose of description, and they are not drawn on actual color maps.

Structures are written as SMILES. Entries after “also recorded” stand apart in the source; their conditions may differ.

For `CC(C)NCC(O)c1ccc(NS(C)(=O)=O)cc1` (racemic) [DL-sotalol], the “speed of propagation of pulsation” value was “the speed of the propagation is slower than the left side”; the “state (direction, path) of propagation of pulsation” value (shortened to “state (direction, path)”) is given as “propagated from an upper left side to a lower right side, but the propagation stops within the observation region”; the “stop of propagation of pulsation / region without pulsation (motionless region)” value is on record as “pulsation is not caused in a part of the observation region in the right side; also recorded: the pulsation is not propagated to the right side portion of the observation region”.

Consider `CCCCCCCO` [1-Heptanol], for which the “speed of propagation of pulsation” value is on record as “the speed of the propagation is slow” and the “state (direction, path)” value is “linearly propagated as time passes while changing the direction to revolve”.

Regarding `CC1(C)[C@@H](O)CC[C@]2(C)[C@H]3C(=O)C=C4[C@@H]5C[C@@](C)(C(=O)O)CC[C@]5(C)CC[C@@]4(C)[C@]3(C)CC[C@@H]12` [18-β-Glycyrrhetinic acid], the “speed of propagation of pulsation” value is “the speed of the propagation is slow”; the “state (direction, path)” value is reported as “proceeds into various directions”; the “stop of propagation of pulsation / region without pulsation (motionless region)” value is “the propagation of the pulsation temporarily stops”.
